Data from patent US4695552A, “Process and reagent for the determination of the hemoglobin-haptoglobin complex in the presence of free hemoglobin” (Boehringer Mannheim GmbH, priority 1983, dated 1987).

Key:
Type in all cases: biochemical
[1] = molecular target: T1, free hemoglobin (Hb) (Homo sapiens, UniProt P68871+P69905); test: Peroxidase reaction of free hemoglobin with perborate and ABTS as substrate, with detergent added; conditions: ABTS 0.5 mmol/l., pH 3.8, 0.25 mg. Hb/ml.
Procedure: (§1) 2 ml. of a reagent solution containing 0.1 mol/liter of sodium citrate buffer (pH 3.8) and 0.5 mmol/liter ABTS are mixed with 0.025 ml. of a sample solution which contains free hemoglobin or the hemoglobin-haptoglobin complex with a hemoglobin concentration of 0.25 mg. Hb/ml. The peroxidase reaction is started with 0.020 ml. of 0.58 molar sodium perborate solution in 0.15 molar citric acid and the color development is monitored by extinction measurement at 436 nm. The reaction temperature is 25° C.
(§2) Analogous measurements are carried out in which, in addition to the above-mentioned components, there are added to the reagent solution the detergents mentioned in the following Table 3 in the concentrations there also given.

[2] = molecular target: T1, free hemoglobin (Hb); test: Peroxidase reaction of free hemoglobin with peroxide and guaiacol as substrate, with detergent added; conditions: digitonin 0.5 mg./ml.; guaiacol 30 mmol/l.; pH 4.0; 0.25 mg. Hb/ml.
Procedure: (§3) 2 ml. of a reagent solution containing 0.1 mol/liter of sodium acetate buffer (pH 4.0) and 30 or 15 mmol/liter of guaiacol are mixed with 0.05 ml. of a sample solution which contains free hemoglobin or a hemoglobin-haptoglobin complex with a hemoglobin concentration of 0.25 mg. Hb/ml. The peroxidase reaction is started with 0.1 ml. of 0.58 molar sodium perborate solution in 0.15 molar citric acid and the color development is monitored by extinction measurement at 436 nm. The reaction temperature is 25° C. After a certain time, the color development comes to a stop. Because of the instability of the colored material, the extinction again decreases. The extinction changes given in the following Table 4 are the initial velocities determined by plotting the tangents on the extinction-time curves.
(§4) Analogous measurements are carried out in which, to the reagent solution, there has been added, in each case, one of the detergents given in Table 4 in the there-given concentration.

[3] = molecular target: T2, hemoglobin haptoglobin complex (Hb:Hp) (Homo sapiens, UniProt P68871+P69905); test: Peroxidase reaction of hemoglobin-haptoglobin complex with peroxide and guaiacol as substrate, with detergent added; conditions: digitonin 0.5 mg./ml.; guaiacol 30 mmol/l.; pH 4.0
Procedure: as §3, §4

[4] = molecular target: T2, hemoglobin haptoglobin complex (Hb:Hp); test: Peroxidase reaction of hemoglobin-haptoglobin complex with perborate and ABTS as substrate, with detergent added; conditions: ABTS 0.5 mmol/l., pH 3.8
Procedure: as §1, §2

T2 sequence (P69905 2-142 limits assumed): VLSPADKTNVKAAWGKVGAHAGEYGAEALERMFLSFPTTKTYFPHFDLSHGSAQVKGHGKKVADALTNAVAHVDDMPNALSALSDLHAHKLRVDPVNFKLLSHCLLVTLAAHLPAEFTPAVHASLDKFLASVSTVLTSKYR
T2 sequence (P68871 2-147 limits assumed): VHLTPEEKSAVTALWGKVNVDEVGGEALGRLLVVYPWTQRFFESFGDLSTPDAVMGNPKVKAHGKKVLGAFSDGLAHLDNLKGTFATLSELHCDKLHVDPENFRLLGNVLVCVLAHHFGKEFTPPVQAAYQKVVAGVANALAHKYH
T2 sequence (P00738 162-406 partner limits assumed): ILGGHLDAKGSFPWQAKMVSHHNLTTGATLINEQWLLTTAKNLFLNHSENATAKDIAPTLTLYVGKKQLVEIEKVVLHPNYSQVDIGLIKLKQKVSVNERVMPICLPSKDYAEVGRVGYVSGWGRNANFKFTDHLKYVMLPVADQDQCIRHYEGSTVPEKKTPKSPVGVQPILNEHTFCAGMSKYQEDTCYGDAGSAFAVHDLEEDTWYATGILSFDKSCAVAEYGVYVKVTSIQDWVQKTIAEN
T1 sequence (P69905 2-142 limits assumed): as the sequence (P69905 2-142 limits assumed) above
T1 sequence (P68871 2-147 limits assumed): as the sequence (P68871 2-147 limits assumed) above

In the case of `C[C@@H]1CC[C@@]2(OC1)O[C@H]1[C@@H](O)[C@H]3[C@@H]4CC[C@H]5C[C@@H](O[C@@H]6O[C@H](CO)[C@H](O[C@@H]7O[C@H](CO)[C@@H](O)[C@H](O[C@@H]8OC[C@@H](O)[C@H](O)[C@H]8O)[C@H]7O[C@@H]7O[C@H](CO)[C@H](O)[C@H](O[C@@H]8O[C@H](CO)[C@@H](O)[C@H](O)[C@H]8O)[C@H]7O)[C@H](O)[C@H]6O)[C@H](O)C[C@]5(C)[C@H]4CC[C@]3(C)[C@H]1[C@@H]2C` [digitonin], the “ΔE/min. Hb” value ([1]; digitonin 0.15 mg./ml.) is reported as 21.8 mE/min, the “ΔE/min. Hb” value ([1]; digitonin 0.3 mg./ml.) is reported as 20 mE/min and the “ΔE/min. Hb” value [2] is reported as 3 mE/min. The “Hb:Hp / Hb” value [3] was 50, the “ΔE/min. Hb:Hp” value [3] was 154 mE/min and the “Hb:Hp / Hb” value ([4]; digitonin 0.15 mg./ml.) was 37.6. The “ΔE/min. Hb:Hp” value ([4]; digitonin 0.15 mg./ml.) was 818 mE/min, the “Hb:Hp / Hb” value ([4]; digitonin 0.3 mg./ml.) was 41 and the “ΔE/min. Hb:Hp” value ([4]; digitonin 0.3 mg./ml.) was 818 mE/min.
